The source made the active and inactive calls. No cut-off for these calls is given here.
Key:
A549 [1] = assay: Inhibition of glycolysis in human A549 cells assessed as reduction in glucose consumption incubated for 8 hrs by colorimetric-oxidase mediator analysis; format: functional, cell-based
A549 [2] = assay: Inhibition of glycolysis in human A549 cells assessed as reduction in lactate production incubated for 8 hrs by colorimetric-oxidase mediator analysis; format: functional, cell-based

O=C(O)C(Cl)Cl
inhibition (A549 [1]): Active
inhibition (A549 [2]): Active
